Test results: patent publication US8946216B2, “Indazole derivatives useful as ERK inhibitors” (Merck Sharp & Dohme Corp., priority 2010, dated 2015)

What was measured:
ERK protein = ERK protein (Homo sapiens, UniProt P28482); experiment: TdF (Temperature Dependence Fluorescence, thermal shift) assay for ERK; type: binding; conditions: read-out: TdF Kd; 3 μM ERK protein, 15, 50 or 100 μM compound, Sypro Orange; Kd calculated from ΔTm; uncertainty estimated ±50%
How it was run: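 Thermal shift with Sypro Orange: samples containing 3 μM in 2% final DMSO heated 30 to 90 °C at 1 °C/min, fluorescence at ex 490/em 560 nm. Kd derived from ΔTm versus protein alone by the Brandts–Lin model, with ΔCpL set to 0 and ΔHL to −7 kcal/mol; uncertainty ±50%.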

[1] = target: fully phosphorylated, active Mouse ERK2 protein (Mus musculus, UniProt P63085); experiment: Active ERK2 (aERK) assay, IMAP format; type: biochemical; conditions: 30 min preincubation; 1 μM substrate peptide, 30 μM ATP; fluorescence polarization; read-out: aERK2 IC50
fully phosphorylated, active Mouse ERK2 protein, sequence (P63085 whole entry): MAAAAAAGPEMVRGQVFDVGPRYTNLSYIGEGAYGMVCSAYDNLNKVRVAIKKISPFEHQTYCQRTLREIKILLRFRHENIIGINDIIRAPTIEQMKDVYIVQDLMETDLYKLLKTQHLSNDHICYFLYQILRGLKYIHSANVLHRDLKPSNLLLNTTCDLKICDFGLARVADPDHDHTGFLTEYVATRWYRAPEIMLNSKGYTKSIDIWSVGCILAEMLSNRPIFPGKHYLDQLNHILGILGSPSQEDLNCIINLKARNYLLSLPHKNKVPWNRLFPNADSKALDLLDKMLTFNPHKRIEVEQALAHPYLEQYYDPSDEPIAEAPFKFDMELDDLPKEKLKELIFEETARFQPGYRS
Protocol: Active ERK2 (aERK) Assay:
Activated ERK2 activity was also determined in the IMAP assay format using the procedure outlined above. 1 μl of 25× compound was added to 14 μl of kinase buffer containing 0.25 ng fully phosphorylated, active Mouse ERK2 protein. Following a 30 minute incubation, the reactions were initiated by addition of 10 μl of kinase buffer containing 1 μM ERK2 IMAP substrate peptide (0.9 μM unlabeled IPTTPITTTYFFFK--CONH2 and 100 nM IPTTPITTTYFFFK(5-carboxyfluorescein)-CONH2) and 30 μM ATP. Reactions proceeded for 30 minutes before termination by addition of 60 μl IMAP detection beads in binding buffer. Plates were read as above after 30 minute binding equilibration. Active compounds were reconfirmed in an independent assay.

[2] = target: unphosphorylated Mouse ERK2 protein (inactive ERK2) (Mus musculus, UniProt P63085); experiment: Coupled ERK2 (cERK) assay, coupled MEK1/ERK2 IMAP; type: biochemical; conditions: 30 min preincubation with inactive ERK2, then activation by human MEK1; 30 μM ATP; fluorescence polarization; read-out: cERK2 IC50
unphosphorylated Mouse ERK2 protein (inactive ERK2), sequence (P63085 whole entry): as above
How it was run: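 Compound was preincubated with 0.4 ng unphosphorylated mouse ERK2 in Tris pH 7.2/MgCl2/DTT buffer (6.7% DMSO). ERK2 was then activated for 1 h by 2 ng active human MEK1 with 4 μM IMAP substrate peptide (100 nM fluorescein-labelled) and 30 μM ATP (final, 4% DMSO). Phosphorylation was read by IMAP bead fluorescence polarization after 30 min binding.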

ERK protein, sequence (P28482 2-360): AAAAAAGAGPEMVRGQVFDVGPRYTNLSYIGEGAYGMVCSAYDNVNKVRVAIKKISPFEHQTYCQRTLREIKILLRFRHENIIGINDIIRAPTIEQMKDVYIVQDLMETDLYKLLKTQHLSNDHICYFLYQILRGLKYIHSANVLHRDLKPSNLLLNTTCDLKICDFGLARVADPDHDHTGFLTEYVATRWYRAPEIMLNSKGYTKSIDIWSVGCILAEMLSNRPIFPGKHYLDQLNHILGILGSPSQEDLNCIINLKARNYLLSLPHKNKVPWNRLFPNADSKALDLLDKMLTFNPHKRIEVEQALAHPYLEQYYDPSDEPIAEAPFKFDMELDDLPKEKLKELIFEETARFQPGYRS

Row | Compound | Kd (ERK protein) [nM] | IC50 [1] [nM] | IC50 [2] [nM]
1 | O=C(Nc1ccc2[nH]nc(-c3ccncc3)c2c1)C1CN(Cc2c(F)ccc(F)c2Cl)CCO1 (stereo not drawn) [Compound 48, 4-[(2-CHLORO-3,6-DIFLUOROPHENYL)METHYL]-N-[3-(4-PYRIDINYL)-1H-INDAZOL-5-YL]-2-MORPHOLINECARBOXAMIDE] | 202 | 371 | 909
2 | O=C(Nc1ccc2[nH]nc(-c3ccncc3)c2c1)C1CN(Cc2cc(Cl)cc(Cl)c2)CCO1 (stereo not drawn) [Compound 50, 4-[(3,5-DICHLOROPHENYL)METHYL]-N-[3-(4-PYRIDINYL)-1H-INDAZOL-5-YL]-2-MORPHOLINECARBOXAMIDE] | 500 | 8680 | 8840
3 | O=C(Nc1ccc2[nH]nc(-c3ccncc3)c2c1)C1CN(Cc2ccc(F)cc2F)CCO1 (stereo not drawn) [Compound 45, 4-[(2,4-DIFLUOROPHENYL)METHYL]-N-[3-(4-PYRIDINYL)-1H-INDAZOL-5-YL]-2-MORPHOLINECARBOXAMIDE] | 80 | 138 | 275
4 | O=C(Nc1ccc2[nH]nc(-c3ccncc3)c2c1)C1CNCCC1c1ccccc1 (stereo not drawn) [Compound 53, 4-PHENYL-N-[3-(4-PYRIDINYL)-1H-INDAZOL-5-YL]-3-PIPERIDINECARBOXAMIDE] | 70 | 102 | 69.5
5 | COc1ccccc1CN1CCOC(C(=O)Nc2ccc3[nH]nc(-c4ccncc4)c3c2)C1 (stereo not drawn) [Compound 35, 4-[(2-METHOXYPHENYL)METHYL]-N-[3-(4-PYRIDINYL)-1H-INDAZOL-5-YL]-2-MORPHOLINECARBOXAMIDE] | 79 | 37.9 | 80.9
6 | O=C(Nc1ccc2[nH]nc(-c3ccncc3)c2c1)C1CN(Cc2ccccc2Cl)CCS1 (stereo not drawn) [Compound 9, 4-[(2-CHLOROPHENYL)METHYL]-N-[3-(4-PYRIDINYL)-1H-INDAZOL-5-YL]-2-THIOMORPHOLINECARBOXAMIDE] | 20 | 54.2 | 42.4

More lines, now with the values ahead:

Row | Kd (ERK protein) [nM] | IC50 [1] [nM] | IC50 [2] [nM] | Compound
7 | 29.4 | 100 | 77.1 | O=C(Nc1ccc2[nH]nc(-c3ccncc3)c2c1)C1CCN(Cc2ccccc2F)C1 (stereo not drawn) [Compound 65, 1-[(2-FLUOROPHENYL)METHYL]-N-[3-(4-PYRIDINYL)-1H-INDAZOL-5-YL]-3-PYRROLIDINECARBOXAMIDE]
8 | 420 | 553 | 150 | O=C(Nc1ccc2[nH]nc(-c3ccncc3)c2c1)C1CCCN(C(=O)c2ccccc2)C1 (stereo not drawn) [Compound 56, 1-BENZOYL-N-[3-(4-PYRIDINYL)-1H-INDAZOL-5-YL]-3-PIPERIDINECARBOXAMIDE]
9 | 104 | 439 | 1000 | O=C(Nc1ccc2[nH]nc(-c3ccncc3)c2c1)C1(CO)CCCN(Cc2ccccc2)C1 (stereo not drawn) [Compound 66, 3-(HYDROXYMETHYL)-1-(PHENYLMETHYL)-N-[3-(4-PYRIDINYL)-1H-INDAZOL-5-YL]-3-PIPERIDINECARBOXAMIDE]
10 | 35.6 | 245 | 171 | O=C(Nc1ccc2[nH]nc(-c3ccncc3)c2c1)C1CCN(Cc2ccccc2)C1 (stereo not drawn) [Compound 64, 1-(PHENYLMETHYL)-N-[3-(4-PYRIDINYL)-1H-INDAZOL-5-YL]-3-PYRROLIDINECARBOXAMIDE]
11 | 13.5 | 211 | 121 | CSC1(C(=O)Nc2ccc3[nH]nc(-c4ccncc4)c3c2)CCN(Cc2ccccc2F)C1 (stereo not drawn) [Compound 63, 1-[(2-FLUOROPHENYL)METHYL]-3-(METHYLTHIO)-N-[3-(4-PYRIDINYL)-1H-INDAZOL-5-YL]-3-PYRROLIDINECARBOXAMIDE]
12 | 20 | 20.7 | 29.3 | O=C(Nc1ccc2[nH]nc(-c3ccncc3)c2c1)C1CN(Cc2ccccc2F)CCO1 (stereo not drawn) [Compound 4, 4-[(2-FLUOROPHENYL)METHYL]-N-[3-(4-PYRIDINYL)-1H-INDAZOL-5-YL]-2-MORPHOLINECARBOXAMIDE]
